According to patent US20190175646A1, “METHODS AND COMPOSITIONS RELATING TO THE TREATMENT OF BENIGN SKIN TUMORS” (THE GENERAL HOSPITAL CORPORATION D/B/A MASSACHUSETTS …, priority 2015, published 2019):

Test system: SK cells
Experiment: SK cell viability (Alamar blue absorbance assay)
Assay type: cell-based, human
Conditions: indicated concentrations, 48 hours
Experimental: FIG. 1 depicts a graph in which SK cells were treated with DSF and CuCl2 (indicated concentrations) for 48 hours and relative cellular viability was measured using Alamar blue (absorbance based) assay. A443654 Akt inhibitor was used as a control.
FIG. 2 depicts a graph in which SK cells and normal human keratinocytes were treated with DSF and CuCl2 (indicated concentrations) for 48 hours and relative cellular viability was measured using Alamar blue (absorbance based) assay. A443654 Akt inhibitor was used as a control.
FIG. 4 depicts a graph of SK cell viability after treatment with DSF and/or Cu^2+. A443654 Akt inhibitor was used as a control.
FIG. 5 depicts a graph of SK cell viability after treatment with DSF and/or Zn^2+. A443654 Akt inhibitor was used as a control.
FIGS. 8 and 9 depict graphs of SK cell viability after treatment with pyrithione and/or Cu^2+. A443654 Akt inhibitor was used as a control. Cells from different donors were used for each experiment

With `COc1ccc(C2=N[C@@H](c3ccc(Cl)cc3)[C@@H](c3ccc(Cl)cc3)N2C(=O)N2CCNC(=O)C2)c(OC(C)C)c1` [nutlin-3a] as the compound, how does the “effect on SK cell viability” value read?
The value was “impair SK viability”.
